Source: patent US20100210562A1, “USE OF IL-1 RECEPTOR PEPTIDE, ALONE OR IN COMBINATION WITH D-ALA-GLN-OCTADECYL ESTER, AS A THERAPEUTIC AGENT” (priority 2007, published 2010)
Where no end group is shown, it is not given here.

Test system: drug-resistant Mycobacterium tuberculosis
Assay type: cell-based
Conditions: 10 micrograms per ml; seven days at 37° C.; strain resistant to PAS, streptomycin and isoniazid

| Substance | inhibition of the growth of Mycobacterium tuberculosis |
| --- | --- |
| D-Ala-Gln-octadecyl ester [Peptide 2] | 100% |
| Lys-Ile-Cys-Ile-Arg-Ile-Gln-Ile-Ser-OH (KICIRIQIS-OH) [Peptide 1] | 100% |
